Laboratory results from patent US20220168302A1, “SALTS OF A COMPOUND, CRYSTAL FORMS OF THE SALTS AND PREPARATION METHOD AND USE THEREOF” (Gan & Lee Pharmaceuticals Co., Ltd., priority 2019, published 2022).
Converted amounts (≈) assume the structure as drawn. Like-named read-outs stand apart in the source and are kept apart here.

Columns and labels:
Type in all cases: physicochemical
[1] = Solid-state stability test, one week, HPLC purity; settings: for HPLC purity 1 week: open container; for HPLC purity, Initial purity: before storage
Experimental: Experimental method: appropriate amount of samples were respectively weighed and placed in open containers under the conditions of light illumination of 4500 lux, 25° C./60% RH and 40° C./75% RH to perform solid-state stability test evaluation for one week. One week later, the purities of the test samples were tested by HPLC to detect the change of purity. Three groups of parallel tests were set for each test condition.
High performance liquid chromatograms were collected on an Agilent 1100 HPLC.

[2] = Dynamic moisture adsorption (DVS) hygroscopicity test; settings: for Hygroscopicity (moisture adsorption capacity): DVS, 25° C./80% RH; for Whether the crystal form has a change: XRPD before and after DVS test
Experimental: The moisture adsorption capacities of the representative salts and the free base of the above Examples and Comparative Examples were tested when the humidity reached 80% RH through a dynamic moisture adsorption (DVS) test at 25° C., so as to compare the hygroscopicities.
Experimental results: the test results are shown in Table 13, wherein, >15% means very hygroscopic, 2% to 15% means hygroscopic, 0.2% to 2% means slightly hygroscopic, and <0.2% means almost non-hygroscopic.

[3] = Solubility test in water, FaSSIF and FeSSIF (24 h, 37° C., HPLC concentration); settings: initial feeding amount 10 mg/ml; for solubility at 24 h: 37 °C, thermodynamic from solid
Experimental: Experimental method: the solubility test was carried out in three solvents including water, fasted state simulated intestinal fluid (FaSSIF) and fed state simulated intestinal fluid (FeSSIF), to evaluate the solubilities of the salts of the present invention.
In the experiment, the sample and the solvent were mixed in a centrifuge tube (the initial feeding amount was 10 mg/ml), then the centrifuge tube was sealed and fixed on a rotating disk with a rotation speed of 25 rpm, and sampling was performed after rotating and mixing for 24 h at 37° C. The turbid sample was subjected to centrifugal separation, and the filtered supernatant was measured for HPLC concentration. If the sample solution was clear, the concentration of the obtained solution was measured.

[4] = as above; settings: stated in background
[5] = fasted state simulated intestinal fluid
[6] = fed state simulated intestinal fluid
[7] = FeSSIF, fessif, fed state simulated intestinal fluid, read-out: Solubility in FeSSIF
[8] = FaSSIF, fassif, fasted state simulated intestinal fluid, read-out: Solubility in FaSSIF
[9] = water, water, water, read-out: Solubility in water

Row | SMILES | HPLC purity 1 week Relative to the initial purity ([1]; 25° C./60% RH) [%] | HPLC purity 1 week ([1]; 25° C./60% RH) [Area %] | HPLC purity 1 week Relative to the initial purity ([1]; 40° C./75% RH) [%] | HPLC purity 1 week ([1]; 40° C./75% RH) [Area %] | HPLC purity 1 week Relative to the initial purity ([1]; Light illumination 4500 lux) [%] | HPLC purity 1 week ([1]; Light illumination 4500 lux) [Area %] | HPLC purity, Initial purity [1] [Area %] | Hygroscopicity (moisture adsorption capacity) [2] [%] | Whether the crystal form has a change [2] | Solubility in FaSSIF [3, 5] [mg/mL] | Solubility in water ([3]; water) [mg/mL] | solubility at 24 h [3, 7] [µg/mL] | solubility at 24 h [3, 8] [µg/mL] | other results
1 | CC1=Nc2c(F)cc(-c3nc(Nc4ccc(C5CCN(C)CC5)cn4)ncc3F)cc2C12CCCC2.CS(=O)(=O)O [Methanesulfonate crystal form A, Methanesulfonate of 5-fluoro-4-(7′-fluoro-2′-methylspiro[cyclopentane-1,3′-indol]-5′-yl)-N-(5-(1-methylpiperidin-4-yl)pyridin-2-yl)pyrimidine-2-amine, reference compound] | 99.9 | 99.73 | 99.4 | 99.16 | 98.5 | 98.28 | 99.81 | 12.02 | Change |  |  |  |  | Whether the crystal form has a change ([2]; listed as methanesulfonate crystal form A): changed to amorphous
2 | CC1=Nc2c(F)cc(-c3nc(Nc4ccc(C5CCN(C)CC5)cn4)ncc3F)cc2C12CCCC2.O=C(O)/C=C/C(=O)O [Fumarate crystal form C, Fumarate of 5-fluoro-4-(7′-fluoro-2′-methylspiro[cyclopentane-1,3′-indol]-5′-yl)-N-(5-(1-methylpiperidin-4-yl)pyridin-2-yl)pyrimidine-2-amine] | 100.0 | 99.48 | 100.0 | 99.48 | 100.0 | 99.46 | 99.48 |  |  | 5.9 | 0.48 |  |  | HPLC purity 1 week Relative to the initial purity ([1]; 40° C./75% RH, listed as fumarate crystal form C): 100%; HPLC purity 1 week Relative to the initial purity ([1]; Light illumination 4500 lux, listed as fumarate crystal form C): 100%; Solubility in FeSSIF [3, 6]: 13.6 mg/mL
3 | CC1=Nc2c(F)cc(-c3nc(Nc4ccc(C5CCN(C)CC5)cn4)ncc3F)cc2C12CCCC2 [Free base crystal form A, 5-fluoro-4-(7′-fluoro-2′-methylspiro[cyclopentane-1,3′-indol]-5′-yl)-N-(5-(1-methylpiperidin-4-yl)pyridin-2-yl)pyrimidine-2-amine, reference compound] | 100.0 | 100.0 | 99.9 | 99.92 | 99.3 | 99.28 | 100.00 | 0.10 | No change | 0.19 (≈ 0.389 mM) | 0.075 (≈ 0.154 mM) | 10200 (≈ 20.9 mM) |  | HPLC purity 1 week Relative to the initial purity ([1]; Light illumination 4500 lux, listed as free base crystal form A): 99.3%; solubility [4]: 75 µg/mL (≈ 0.154 mM)
4 | CC1=Nc2c(F)cc(-c3nc(Nc4ccc(C5CCN(C)CC5)cn4)ncc3F)cc2C12CCCC2.O=C(O)/C=C\C(=O)O [Maleate crystal form B, Maleate of 5-fluoro-4-(7′-fluoro-2′-methylspiro[cyclopentane-1,3′-indol]-5′-yl)-N-(5-(1-methylpiperidin-4-yl)pyridin-2-yl)pyrimidine-2-amine] | 100.0 | 99.88 | 100.0 | 99.89 | 99.9 | 99.83 | 99.91 | 2.00 | No change |  |  | 7800 | 7100 | HPLC purity 1 week Relative to the initial purity ([1]; 40° C./75% RH, listed as maleate crystal form B): 100%; solubility at 24 h [3, 9]: 12900 µg/mL; Whether the crystal form has a change ([2]; listed as maleate crystal form B): no change
5 | CC1=Nc2c(F)cc(-c3nc(Nc4ccc(C5CCN(C)CC5)cn4)ncc3F)cc2C12CCCC2.O=C(O)/C=C/C(=O)O [Fumarate crystal form A, Fumarate of 5-fluoro-4-(7′-fluoro-2′-methylspiro[cyclopentane-1,3′-indol]-5′-yl)-N-(5-(1-methylpiperidin-4-yl)pyridin-2-yl)pyrimidine-2-amine] | 100.0 | 99.89 | 100.0 | 99.88 | 100.0 | 99.89 | 99.92 | 0.35 | No change |  | 6.3 | 8000 | 7600 | HPLC purity 1 week Relative to the initial purity ([1]; 40° C./75% RH, listed as fumarate crystal form A): 100%; HPLC purity 1 week Relative to the initial purity ([1]; Light illumination 4500 lux, listed as fumarate crystal form A): 100%; Whether the crystal form has a change ([2]; listed as fumarate crystal form A): no change
6 | CC1=Nc2c(F)cc(-c3nc(Nc4ccc(C5CCN(C)CC5)cn4)ncc3F)cc2C12CCCC2.O=C(O)CCC(=O)O [Succinate crystal form A, Succinate of 5-fluoro-4-(7′-fluoro-2′-methylspiro[cyclopentane-1,3′-indol]-5′-yl)-N-(5-(1-methylpiperidin-4-yl)pyridin-2-yl)pyrimidine-2-amine] | 100.0 | 99.90 | 100.00 | 99.90 | 100.0 | 99.90 | 99.94 | 0.33 | No change |  |  | 10700 | 6400 | HPLC purity 1 week Relative to the initial purity ([1]; 40° C./75% RH, listed as succinate crystal form A): 100%; HPLC purity 1 week Relative to the initial purity ([1]; Light illumination 4500 lux, listed as succinate crystal form A): 100%; solubility at 24 h [3, 9]: 7500 µg/mL; Whether the crystal form has a change ([2]; listed as succinate crystal form A): no change
7 | CC1=Nc2c(F)cc(-c3nc(Nc4ccc(C5CCN(C)CC5)cn4)ncc3F)cc2C12CCCC2 [Adipate crystal form A, Adipate of 5-fluoro-4-(7′-fluoro-2′-methylspiro[cyclopentane-1,3′-indol]-5′-yl)-N-(5-(1-methylpiperidin-4-yl)pyridin-2-yl)pyrimidine-2-amine] | 100.0 | 99.88 | 100.0 | 99.89 | 100.0 | 99.88 | 99.90 | 0.22 | No change | 6.8 (≈ 13.9 mM) | 6.5 (≈ 13.3 mM) |  |  | HPLC purity 1 week Relative to the initial purity ([1]; 40° C./75% RH, listed as adipate crystal form A): 100%; HPLC purity 1 week Relative to the initial purity ([1]; Light illumination 4500 lux, listed as adipate crystal form A): 100%; Solubility in FeSSIF [3, 6]: 11.6 mg/mL (≈ 23.7 mM); Whether the crystal form has a change ([2]; listed as adipate crystal form A): no change
8 | CC1=Nc2c(F)cc(-c3nc(Nc4ccc(C5CCN(C)CC5)cn4)ncc3F)cc2C12CCCC2.Cl [Hydrochloride crystal form B, Hydrochloride of 5-fluoro-4-(7′-fluoro-2′-methylspiro[cyclopentane-1,3′-indol]-5′-yl)-N-(5-(1-methylpiperidin-4-yl)pyridin-2-yl)pyrimidine-2-amine, reference compound] |  |  |  |  |  |  |  | 9.12 | Change |  |  |  |  | Whether the crystal form has a change ([2]; listed as hydrochloride crystal form B): changed to amorphous
